In US7811816B2, “Isolated CD8 +T lymphocytes specifically cytotoxic for a disease causing target cell” (Ortho-McNeil Pharmaeutical, Inc., priority 2001, dated 2010):
Marks after values point to notes of the source that are not given here.

Key:
[1] = tested on: peptides loaded RMAS (K^b, D^b) cells; assay: In vitro generation of IgE peptide specific CTLs, 51Cr release against peptide loaded RMAS cells; assay type: cell-based; settings: naive mouse CD8 T cells, Drosophila APC with D^b, B7-1, ICAM-1; Day 9
Experimental: CD8^+ T cells were purified from lymph nodes of CBF1/J mice (FIGS. 2A, 2B and 2D) or from B6, interferon γ knock out mice (IFNγ^−/−) or perform (PF^−/−) knock out mice (FIG. 2C). The purified CD8 T cells were cultured with indicated IgE peptides presented by SC2 cells transfected with D^b MHC class I, B7-1 (CD80) and ICAM-1 (CD54) molecules. Low dose of recombinant IL-2 (20 units/ml) was added to the culture at Day 3 and every other day thereafter. On Day 9, CTL activity was measured against ^51Cr labeled RMAS cells loaded with or without indicated IgE peptides. In FIG. 2D, anti-D^b mAb (20 μg/ml) was added at the beginning of CTL assay.
(§1) CTL Assay: Epitope-bearing (target) cells are used as target cells in a ^51 Cr release assay. 5×10^6 target cells in RPMI medium containing 4% fetal calf serum, 1% HEPES buffer and 0.25% gentamycin are labeled at 37° C. for one hour with 0.1 mCi ^51Cr. Cells are washed four times and diluted to 10^5 cells/ml in RPMI with 10% fetal bovine serum (HyClone). In a 96-well microtiter plate, 100 μl effector CTLs and 100 μl peptide-loaded, ^51Cr-labeled target cells are combined at ratios of 100:1, 20:1 and 4:1 (effector: target). K562 cells are added at a ratio of 20:1 (K562) to reduce natural killer cell background lysis. Non-specific lysis is assessed using cells labeled with ^51Cr as described above, but not bearing the epitope cell line. Controls to measure spontaneous release and maximum release of ^51Cr are included in duplicate. After incubation at 37° C. for six hours, the plates are centrifuged and the supernatants counted to measure ^51Cr release. Percent specific lysis is calculated using the following equation: […]
The ability of these IgE peptides in eliciting CTL responses was evaluated in vitro. As previously described, Drosophila cells transfected with MHC class I plus B7-1 and ICAM-1 are potent antigen presenting cells (APC) in activation of resting naïve CD8 T cells in vitro. Resting naïve CD8 T cells were purified from mouse lymph nodes and cultured with peptide loaded Drosophila cells transfected with L^d or D^b plus B7-1 and ICAM-1 in the absence of cytokines. IL-2 (20units/ml) was added at Day 3 and every other day thereafter. The CTL activity towards peptides loaded RMAS (K^b, D^b) cells or RMAS-L^d cells were measured on Day 9.

D^b class I molecules = target: T1, D^b class I molecules (Mus musculus, UniProt P01899); assay: MHC class I stabilization assay on TAP- RMAS cells (H-2^b), flow cytometry; assay type: binding; settings: for Stabilization of MHC: D^b, ratio of fluorescence intensity (with peptide - without peptide)/without peptide; for Binding to / stabilization of D^b, in words: MHC class I stabilization assay, RMAS cells
T1 construct: Antigen-transporting deficient (TAP^−) RMAS cells (H-2^b); endogenous in cells; host or cells: RMA-S (TAP 2 deficient, H-2^b)
T1 sequence (P01899 25-362): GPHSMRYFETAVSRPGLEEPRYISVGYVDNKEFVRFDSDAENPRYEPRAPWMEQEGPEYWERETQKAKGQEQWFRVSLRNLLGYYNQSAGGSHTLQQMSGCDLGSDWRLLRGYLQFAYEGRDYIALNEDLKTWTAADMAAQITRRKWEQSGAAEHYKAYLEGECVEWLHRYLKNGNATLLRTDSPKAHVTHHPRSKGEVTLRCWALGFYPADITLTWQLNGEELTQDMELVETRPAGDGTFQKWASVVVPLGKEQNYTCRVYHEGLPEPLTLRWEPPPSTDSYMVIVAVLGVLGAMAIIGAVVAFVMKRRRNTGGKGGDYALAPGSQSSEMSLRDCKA
T1 sequence (P01887 21-119 partner): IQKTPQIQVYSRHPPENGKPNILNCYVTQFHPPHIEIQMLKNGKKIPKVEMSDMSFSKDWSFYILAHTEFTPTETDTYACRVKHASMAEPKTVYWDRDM
Experimental: (§2) TAP 2 deficient RMA.S cells (FIG. 11B) or L^d transfected RMA.S cells (FIG. 11A) were incubated with indicated concentration of peptides at 28° C. overnight and then incubated at 37° C. for two to four hours. The cells were harvested and stained with mAb specific for L^d (FIG. 11B) or for D^b (FIG. 11A) and analyzed with FACScan.
(§3) The binding capacity of these synthetic peptides to L^d and D^b class I molecules were tested in an MHC class I stabilization assay (Cai et al. (1996) supra). Antigen-transporting deficient (TAP^−) RMAS cells (H-2^b) or L^d transfected RMAS (RMAS-L^d) cells were cultured in the presence of a titrated concentration of peptides at 27° C. After overnight culturing at 27° C., these cells were further cultured for two hours at 37° C. and the surface expression of L^d or D^b on the cells were analyzed by flow cytometry. […] Of the five peptides predicted bind to D^b, only IgE44 binds Db strongly and two peptides, IgE16 and IgE125, bind D^b weakly. […] Thus, a total of six peptides were identified that bind to either L^d or D^b MHC class I molecules.

[2] = tested on: T2 cells loaded with indicated peptides; assay: CTL activity generated from PBMC of different donors with IgE peptides on transfected Drosophila cells, chromium release; assay type: cell-based, human; settings: x: number of donor from whom anti-IgE CTL was generated; N: number of donor tested
Experimental: CD8 T cells were purified from individual donors and cultured with Drosophila cells transfected with HLA-A2, hB7-1, hB7-2, hICAM-1 and hLFA-3 molecules in the presence of indicated peptides. After being cultured for six days, low doses of hIL-2 was added to the culture and re-stimulated with peptides loaded autologous adherent cells for an additional seven days. The CTLs were then harvested and the specific killing activities were tested with ^51Cr labeled T2 cells that loaded with indicated peptides FIGS. 9A through 9D by a standard chromium release assay. [table]

[3] = tested on: peptides loaded RMAS-L^d cells; assay: In vitro generation of IgE peptide specific CTLs, 51Cr release against peptide loaded RMAS-L^d cells; assay type: cell-based; settings: naive mouse CD8 T cells, Drosophila APC with L^d, B7-1, ICAM-1; Day 9
Experimental: as §1
The ability of these IgE peptides in eliciting CTL responses was evaluated in vitro. […] The CTL activity towards peptides loaded RMAS (K^b, D^b) cells or RMAS-L^d cells were measured on Day 9.

L^d class I molecules = target: T2, L^d class I molecules (Mus musculus, UniProt P01897); assay: MHC class I stabilization assay on L^d transfected RMAS cells, flow cytometry; assay type: binding; settings: for Stabilization of MHC: L^d, ratio of fluorescence intensity (with peptide - without peptide)/without peptide; for Binding to L^d, in words: MHC class I stabilization assay, RMAS-L^d cells
T2 construct: expressed in transfected cells; host or cells: RMA-S (RMAS-L^d), TAP-deficient
T2 sequence (P01897 25-362): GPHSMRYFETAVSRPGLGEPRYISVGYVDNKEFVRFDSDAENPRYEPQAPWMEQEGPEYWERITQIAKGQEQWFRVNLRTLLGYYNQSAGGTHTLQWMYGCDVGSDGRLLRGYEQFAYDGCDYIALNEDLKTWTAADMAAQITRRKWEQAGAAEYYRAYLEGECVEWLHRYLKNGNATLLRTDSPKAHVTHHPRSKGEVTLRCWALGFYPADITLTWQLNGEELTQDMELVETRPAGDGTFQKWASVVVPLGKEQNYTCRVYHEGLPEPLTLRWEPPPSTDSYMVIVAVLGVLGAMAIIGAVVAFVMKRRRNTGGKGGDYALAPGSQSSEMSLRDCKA
T2 sequence (P01887 21-119 partner): T1 sequence (P01887 21-119 partner)
Experimental: as §2, §3

With GHILNDVSV (Peptide antigen) [IgE 125] the “Specific CTL activity induced by the peptide, D^b restricted” value [1] was “No specific CTL activity”, the “Stabilization of MHC” value (D^b class I molecules) was “+ (less than two-fold is scored as “+”)” and the “Binding to / stabilization of D^b, in words” value (shortened to “Binding to / stabilization”) (D^b class I molecules) was “weakly”.

In the case of QVMDVDLSTA (Peptide antigen) [IgE 898], the “Specific Killing (x/N)” value [2] is reported as 3/4.

In the case of SLNGTTMTL [IgE 47], the “Specific Killing (x/N)” value [2] is reported as 7/8.

With KPCKGTASM (Peptide antigen) [IgE 11] the “Specific CTL activity induced by the peptide, L^d restricted” value [3] was “induces antigen specific CTLs”, the “Stabilization of MHC” value (L^d class I molecules) was “++ (more than two fold is calculate as “++”)” and the “Binding to L^d, in words” value (L^d class I molecules) was “strongly”.

TLTVTSTLPV (Peptide antigen) [IgE 884] was tested, and the “Specific Killing (x/N)” value [2] was 8/8.

With SLLTVSGAWA (Peptide antigen) [IgE 876] the “Specific Killing (x/N)” value [2] was 0/5.

With MSTVNFPAL (Peptide antigen) [IgE 44] the “Specific CTL activity induced by the peptide, D^b restricted” value [1] was “specifically lysed”, the “Stabilization of MHC” value (D^b class I molecules) was “++ (more than two fold is calculate as “++”)” and the “Binding to / stabilization” value (D^b class I molecules) was “strongly”.

GSNQGFFIF (Peptide antigen) [IgE 366] was tested, and the “Specific CTL activity induced by the peptide, D^b restricted” value [1] was “induce D^b restricted CTLs”, the “Specific CTL activity induced by the peptide, L^d restricted” value [3] was “inducing L^d restricted CTLs” and the “Binding to / stabilization” value (D^b class I molecules) was “^cIgE 366 also stabilizes D^b class I molecules”. The “Binding to / stabilization” value (D^b class I molecules; listed as IgE366) was “binds both L^d and D^b”, the “Stabilization of MHC” value (L^d class I molecules) was “++^c (more than two fold is calculate as “++”)” and the “Binding to L^d, in words” value (L^d class I molecules) was “strongly”.

In the case of WVDNKTFSV [IgE 96], the “Specific Killing (x/N)” value [2] is reported as 3/8.

In the case of YATISLLTV (Peptide antigen) [IgE 890], the “Specific Killing (x/N)” value [2] is reported as 4/5.

For WLSDRTYTC (Peptide antigen) [IgE 185], the “Specific Killing (x/N)” value [2] was 0/8.

HSTIQLYCF (Peptide antigen) [IgE 114] was tested, and the “Stabilization of MHC” value (L^d class I molecules) was “+ (less than two-fold is scored as “+”)” and the “Binding to L^d, in words” value (L^d class I molecules) was “weakly”.

For WLEDGQVMDV (Peptide antigen) [IgE 883], the “Specific Killing (x/N)” value [2] was 1/5.

TLACLIQNFM (Peptide antigen) [IgE 895] was tested, and the “Specific Killing (x/N)” value [2] was 3/4.

In the case of TASMTLGCL (Peptide antigen) [IgE 16], the “Specific CTL activity induced by the peptide, D^b restricted” value [1] is reported as “No specific CTL activity”, the “Stabilization of MHC” value (D^b class I molecules) is reported as “+ (less than two-fold is scored as “+”)” and the “Binding to / stabilization” value (D^b class I molecules) is reported as “weakly”.

QMFTCRVAHT (Peptide antigen) [IgE 887] was tested, and the “Specific Killing (x/N)” value [2] was 1/4.
